Source: US12116358B2, “Substituted indoles and methods of use thereof” (EPIZYME, INC., priority 2018, dated 2024)
pIC50: −log10 of the molar value.

Molecular target: T1, SETD2(1434-1711) (Homo sapiens, UniProt Q9BYW2)
T1 construct: SETD2 (1434-1711) Assay; catalogue N/A
T1 sequence (Q9BYW2 1434-1711): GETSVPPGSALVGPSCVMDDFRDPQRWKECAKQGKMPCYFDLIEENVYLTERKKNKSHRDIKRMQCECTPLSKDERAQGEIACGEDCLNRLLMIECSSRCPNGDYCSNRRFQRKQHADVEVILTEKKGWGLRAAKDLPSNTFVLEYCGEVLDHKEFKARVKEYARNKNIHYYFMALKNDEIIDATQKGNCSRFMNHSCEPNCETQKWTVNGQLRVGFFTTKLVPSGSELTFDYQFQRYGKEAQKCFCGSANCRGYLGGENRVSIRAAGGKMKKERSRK
Assay: SETD2 (1434-1711) assay
Assay type: biochemical
Conditions: read-out: SETD2 (1434-1711)

pIC50	SMILES
6.70	Cc1ccc(F)c2cc(C(=O)Nc3cccc(N4C5CCC4CN(C)C5)c3)[nH]c12 [compound 349]
6.30	Cc1ccc(F)c2cc(C(=O)NC3C(=O)N(C)CCc4ccccc43)[nH]c12 (stereo not drawn) [compound 390]
4.96	Cc1c(CN2CCOCC2)cccc1NC(=O)c1cc2cccc(C)c2[nH]1 [compound 624]
4.96	Cc1cccc2cc(C(=O)N[C@H]3C[C@@H]4CC[C@H]3CN4C(=O)CCCN)[nH]c12 [compound 625]
4.90	Cc1cccc2cc(C(=O)NC3CCCN(c4ncccn4)C3)[nH]c12 (stereo not drawn) [compound 626]
4.88	Cc1cccnc1C(CN(C)C)NC(=O)c1cc2cccc(C)c2[nH]1 (stereo not drawn) [compound 627]
4.88	CCOC(=O)N1CCC(NC(=O)c2cc3cccc(C)c3[nH]2)CC1 [compound 628]
4.84	Cc1cccc2cc(C(=O)N[C@H]3CC[C@](C)(NC(=O)CCN)CC3)[nH]c12 [compound 629]
4.84	CCOC(=O)C(CC1CCC1)NC(=O)c1cc2cccc(C)c2[nH]1 (stereo not drawn) [compound 630]
4.82	Cc1cccc2cc(C(=O)N[C@H]3C[C@H]4CC[C@@H]3CN4C(=O)CCN)[nH]c12 [compound 631]
4.81	Cc1cccc2cc(C(=O)Nc3ccncc3)[nH]c12 [compound 632]
4.79	Cc1cccc2cc(C(=O)Nc3cccc(CN4CCOCC4)n3)[nH]c12 [compound 633]
4.79	COC(=O)C[C@@H](NC(=O)c1cc2cccc(C)c2[nH]1)c1cccc(Cl)c1 [compound 634]
4.78	Cc1cccc2cc(C(=O)NCCc3ccccc3-c3ccccc3CN)[nH]c12 [compound 635]
4.76	Cc1cccc2cc(C(=O)NC(c3ccccn3)c3ccccn3)[nH]c12 [compound 637]
4.74	Cc1cccc2cc(C(=O)NCc3ccccc3N(C)C)[nH]c12 [compound 638]
4.73	Cc1cccc2cc(C(=O)NC3CCN(C(=O)CCCN)CC3)[nH]c12 [compound 639]
4.73	Cc1cccc2cc(C(=O)NC3CC4CCC(C3)C4NC(=O)CCN)[nH]c12 (stereo not drawn) [compound 640]
4.73	Cc1cccc2cc(C(=O)N[C@H]3CC[C@@](C)(NC(=O)CCN)CC3)[nH]c12 [compound 641]
4.73	Cc1cccc2cc(C(=O)NC(c3cccc(F)c3)C(F)(F)F)[nH]c12 (stereo not drawn) [compound 642]
4.73	Cc1cccc2cc(C(=O)NC3(c4cccnc4)CC3)[nH]c12 [compound 643]

pIC50	SMILES
4.71	Cc1ccc(C)c2[nH]c(C(=O)N[C@H]3CC[C@H](NC(=O)CCN)CC3)cc12 [compound 644]
4.70	Cc1cccc2cc(C(=O)N(C)[C@H]3CC[C@H](NC(=O)CCN)CC3)[nH]c12 [compound 645]
4.69	Cc1cccc2cc(C(=O)NC3CCCN(S(=O)(=O)CCCN)C3)[nH]c12 (stereo not drawn) [compound 646]
4.65	COC(=O)CC(NC(=O)c1cc2cccc(C)c2[nH]1)c1ccco1 (stereo not drawn) [compound 648]
4.65	COC(=O)CC(NC(=O)c1cc2cccc(C)c2[nH]1)c1ccsc1 (stereo not drawn) [compound 649]
< 4.64	COC(=O)CC(NC(=O)c1cc2cccc(C)c2[nH]1)c1cccs1 (stereo not drawn) [compound 650]
4.61	Cc1cccc2cc(C(=O)NC(C)c3ccc(-n4cccn4)cc3)[nH]c12 (stereo not drawn) [compound 652]
< 4.60	Cc1cccc2cc(C(=O)NCCc3ccc(Cl)cc3N3CCOCC3)[nH]c12 [compound 653]
4.60	Cc1cccc2cc(C(=O)NC3C[C@@H]4CC[C@H]3C4)[nH]c12 (stereo partly drawn) [compound 654]
4.60	Cc1c(C(=O)N[C@H]2CC[C@H](NC(=O)CCN)CC2)[nH]c2c(C)cccc12 [compound 655]
4.57	COC(=O)C[C@@H](NC(=O)c1cc2cccc(C)c2[nH]1)c1cccnc1 [compound 658]
4.56	COC(=O)CC(NC(=O)c1cc2cccc(C)c2[nH]1)c1cccc(OC)c1 (stereo not drawn) [compound 659]
4.55	Cc1cccc2cc(C(=O)NC(c3ccccn3)C3CC3)[nH]c12 (stereo not drawn) [compound 660]
4.54	Cc1cccc2cc(C(=O)N[C@H]3CC[C@H](NS(=O)(=O)CCN)CC3)[nH]c12 [compound 661]
4.53	Cc1cccc2cc(C(=O)N[C@H]3CC[C@@H](CO)CC3)[nH]c12 [compound 662]
4.50	Cc1cccc2cc(C(=O)NC3CCN(S(=O)(=O)CCCN)CC3)[nH]c12 [compound 663]
4.50	Cc1cccc2cc(C(=O)NC3CCCN(C(=O)CCCN)C3)[nH]c12 (stereo not drawn) [compound 664]
4.49	Cc1cccc2cc(C(=O)Nc3cncnc3)[nH]c12 [compound 665]
< 4.48	COC(=O)C[C@@H](NC(=O)c1cc2cccc(C)c2[nH]1)c1ccccc1 [compound 666]
4.46	Cc1cccc2cc(C(=O)NC(c3cccc(CC(N)=O)n3)C3CC3)[nH]c12 (stereo not drawn) [compound 667]
4.46	CCC(NC(=O)c1cc2cccc(C)c2[nH]1)c1nc(C)no1 (stereo not drawn) [compound 668]

pIC50	SMILES
4.45	COC(=O)CC(NC(=O)c1cc2cccc(C)c2[nH]1)c1cccc(Br)c1 (stereo not drawn) [compound 669]
4.45	CC(=O)N1CCC(NC(=O)c2cc3cccc(C)c3[nH]2)CC1 [compound 670]
4.45	COC(=O)CC(NC(=O)c1cc2cccc(C)c2[nH]1)c1cccnc1 (stereo not drawn) [compound 671]
4.44	Cc1cccc2cc(C(=O)N[C@@H]3C[C@H]4CC[C@@H]3CN4C(=O)CCN)[nH]c12 [compound 672]
4.44	Cc1cccc2cc(C(=O)Nc3ccccn3)[nH]c12 [compound 673]
4.43	Cc1cccc2cc(C(=O)NCc3cccc(CN4CCCC4)c3)[nH]c12 [compound 674]
4.42	CCOC(=O)C(NC(=O)c1cc2cccc(C)c2[nH]1)C(F)(F)F (stereo not drawn) [compound 675]
4.42	COC(=O)C[C@H](NC(=O)c1cc2cccc(C)c2[nH]1)c1cccnc1 [compound 676]
4.40	COC(=O)CC(NC(=O)c1cc2cccc(C)c2[nH]1)c1ccccc1C (stereo not drawn) [compound 677]
4.40	Cc1cccc2cc(C(=O)NCC(O)C(F)(F)F)[nH]c12 (stereo not drawn) [compound 678]
4.37	Cc1cccc2cc(C(=O)Nc3ccccc3C3CCC(=O)N3)[nH]c12 (stereo not drawn) [compound 679]
4.35	Cc1cccc2cc(C(=O)NC(c3ncccn3)C3CC3)[nH]c12 (stereo not drawn) [compound 680]
4.35	COc1cc(OC)cc(C(O)CNC(=O)c2cc3cccc(C)c3[nH]2)c1 (stereo not drawn) [compound 681]
4.34	CNC(=O)CC(NC(=O)c1cc2cccc(C)c2[nH]1)c1ncccc1C (stereo not drawn) [compound 682]
4.32	COC(=O)C[C@H](NC(=O)c1cc2cccc(C)c2[nH]1)c1ccc(Cl)cc1 [compound 683]
< 4.30	Cc1cccc2cc(C(=O)N3CCc4ccccc4C3)[nH]c12 [compound 684]
4.30	Cc1cccc2cc(C(=O)NC3C4CCC3CC(NC(=O)CCN)C4)[nH]c12 (stereo not drawn) [compound 685]
4.29	Cc1ccccc1C(O)CNC(=O)c1cc2cccc(C)c2[nH]1 (stereo not drawn) [compound 686]
4.29	Cc1cccc2cc(C(=O)N[C@@H](c3ccccc3)C(F)(F)F)[nH]c12 [compound 687]
4.28	Cc1csc(C(C)NC(=O)c2cc3cccc(C)c3[nH]2)n1 (stereo not drawn) [compound 688]
4.27	Cc1cccc2cc(C(=O)NC(c3cccnc3)C3CC3)[nH]c12 (stereo not drawn) [compound 689]

pIC50	SMILES
4.25	COC(=O)C[C@H](NC(=O)c1cc2cccc(C)c2[nH]1)c1ccccc1 [compound 690]
4.25	Cc1cccc2cc(C(=O)Nc3ccc(CN4CCOCC4)cc3)[nH]c12 [compound 691]
4.24	Cc1cccc2cc(C(=O)N[C@@H](CO)Cc3ccccc3)[nH]c12 [compound 692]
4.23	Cc1cccc2cc(C(=O)NCc3ccnn3C)[nH]c12 [compound 693]
4.21	COC(=O)C[C@@H](NC(=O)c1cc2cccc(C)c2[nH]1)C(=O)OC [compound 694]
4.21	COc1cccc(C(O)CNC(=O)c2cc3cccc(C)c3[nH]2)c1 (stereo not drawn) [compound 695]
4.20	NCCC(=O)N[C@H]1CC[C@H](NC(=O)c2cc3cccc(Cl)c3[nH]2)CC1 [compound 697]
4.20	CC(=O)N[C@H]1CC[C@H](NC(=O)c2cc3cccc(C)c3[nH]2)CC1 [compound 698]
4.18	Cc1cccc2cc(C(=O)NC3Cc4ccccc4NC3=O)[nH]c12 (stereo not drawn) [compound 699]
4.16	CCOC(=O)CC(NC(=O)c1cc2cccc(C)c2[nH]1)c1ccncc1 (stereo not drawn) [compound 700]
4.16	COC(=O)C(NC(=O)c1cc2cccc(C)c2[nH]1)c1ccccc1 (stereo not drawn) [compound 701]
4.16	Cc1oncc1CNC(=O)c1cc2cccc(C)c2[nH]1 [compound 702]
4.15	Cc1cccc2cc(C(=O)N[C@H](CO)c3ccccc3)[nH]c12 [compound 703]
4.15	Cc1cccc2cc(C(=O)NC3CCC(=O)Nc4ccccc43)[nH]c12 (stereo not drawn) [compound 704]
4.15	Cc1cccc2cc(C(=O)NC(CO)c3ccccc3)[nH]c12 (stereo not drawn) [compound 705]
4.14	NC1CCC(NC(=O)c2cc3cccc(Br)c3[nH]2)CC1 (stereo not drawn) [compound 706]
4.14	COC(=O)CC(NC(=O)c1cc2cccc(C)c2[nH]1)c1cccc(F)c1 (stereo not drawn) [compound 707]
4.13	COC(=O)C[C@H](NC(=O)c1cc2cccc(C)c2[nH]1)C(=O)OC [compound 708]
4.11	Cc1cccc2cc(C(=O)NCc3cccc(CN4CCOCC4)c3)[nH]c12 [compound 709]

SMILES	pIC50
Cc1cccc2cc(C(=O)NCc3ccccc3N3CCNCC3)[nH]c12 [compound 636]	4.77
Cc1cccc2cc(C(=O)N[C@@H]3C[C@@H]4CC[C@H]3CN4C(=O)CCCN)[nH]c12 [compound 657]	4.59
